Laboratory results from PubChem BioAssay (NCI).
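In this assay, cells in 96-well plates receive the compound at five concentrations for 48 hours. Endpoints are linearly interpolated between the surrounding concentrations. Abbreviation: GI50, concentration required for 50% inhibition of growth. At the TGI there is no net growth.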

How the values were obtained:
Test in all cases: growth of human tumour cells (NCI), 48 h
A498 renal = tested on: A498 renal
ACHN renal = tested on: ACHN renal
BT-549 breast = tested on: BT-549 breast
CCRF-CEM leukemia = tested on: CCRF-CEM leukemia
COLO 205 colon = tested on: COLO 205 colon
DU-145 prostate = tested on: DU-145 prostate
EKVX NSCLC = tested on: EKVX NSCLC
HCC-2998 colon = tested on: HCC-2998 colon
HCT-15 colon = tested on: HCT-15 colon
HL-60(TB) leukemia = tested on: HL-60(TB) leukemia
HT29 colon = tested on: HT29 colon
IGROV1 ovarian = tested on: IGROV1 ovarian
K-562 leukemia = tested on: K-562 leukemia
KM12 colon = tested on: KM12 colon
LOX IMVI melanoma = tested on: LOX IMVI melanoma
M14 melanoma = tested on: M14 melanoma
MDA-MB-435 = tested on: MDA-MB-435
NCI-H522 lung = tested on: NCI-H522 lung
NCI/ADR-RES ovarian = tested on: NCI/ADR-RES ovarian
OVCAR-3 ovarian = tested on: OVCAR-3 ovarian
OVCAR-4 ovarian = tested on: OVCAR-4 ovarian
OVCAR-5 ovarian = tested on: OVCAR-5 ovarian
OVCAR-8 ovarian = tested on: OVCAR-8 ovarian
RXF 393 renal = tested on: RXF 393 renal
SF-268 CNS = tested on: SF-268 CNS
SF-295 CNS = tested on: SF-295 CNS
SK-MEL-2 melanoma = tested on: SK-MEL-2 melanoma
SK-MEL-28 melanoma = tested on: SK-MEL-28 melanoma
SK-MEL-5 melanoma = tested on: SK-MEL-5 melanoma
SN12C renal = tested on: SN12C renal
SNB-19 CNS = tested on: SNB-19 CNS
SW-620 colon = tested on: SW-620 colon
T-47D breast = tested on: T-47D breast
TK-10 renal = tested on: TK-10 renal
UACC-257 melanoma = tested on: UACC-257 melanoma
UO-31 renal = tested on: UO-31 renal
786-0 renal = tested on: 786-0 renal
A549 NSCLC = tested on: A549 NSCLC
CAKI-1 renal = tested on: CAKI-1 renal
HCT-116 colon = tested on: HCT-116 colon
HOP-62 NSCLC = tested on: HOP-62 NSCLC
HOP-92 NSCLC = tested on: HOP-92 NSCLC
HS 578T breast = tested on: HS 578T breast
MALME-3M melanoma = tested on: MALME-3M melanoma
MCF7 breast = tested on: MCF7 breast
MDA-MB-231 breast = tested on: MDA-MB-231 breast
MOLT-4 leukemia = tested on: MOLT-4 leukemia
NCI-H226 lung = tested on: NCI-H226 lung
NCI-H460 lung = tested on: NCI-H460 lung
PC-3 prostate = tested on: PC-3 prostate
RPMI-8226 leukemia = tested on: RPMI-8226 leukemia
SF-539 CNS = tested on: SF-539 CNS
SK-OV-3 ovarian = tested on: SK-OV-3 ovarian
SNB-75 CNS = tested on: SNB-75 CNS
SR leukemia = tested on: SR leukemia
U251 CNS = tested on: U251 CNS
UACC-62 melanoma = tested on: UACC-62 melanoma

## COc1ccc2[nH]cc(-c3cc(N)n4nc(-c5c[nH]c6ccc(OC)cc56)cc4n3)c2c1
A498 renal
  GI50: 1.92 µM
  TGI: 3.86 µM
ACHN renal
  GI50: 1.85 µM
  TGI: 3.45 µM
BT-549 breast
  GI50: 5.54 µM
  TGI: 21.2 µM
CCRF-CEM leukemia
  GI50: 2.81 µM
  TGI: 8.78 µM
COLO 205 colon
  GI50: 1.65 µM
  TGI: 3.13 µM
DU-145 prostate
  GI50: 1.93 µM
  TGI: 3.58 µM
EKVX NSCLC
  GI50: 1.73 µM
  TGI: 3.58 µM
HCC-2998 colon
  GI50: 1.97 µM
  TGI: 3.59 µM
HCT-15 colon
  GI50: 1.99 µM
  TGI: 4.98 µM
HL-60(TB) leukemia
  GI50: 1.92 µM
  TGI: 4.73 µM
HT29 colon
  GI50: 1.79 µM
  TGI: 3.34 µM
IGROV1 ovarian
  GI50: 2.26 µM
  TGI: 5.73 µM
K-562 leukemia
  GI50: 2.4 µM
  TGI: > 100 µM
KM12 colon
  GI50: 1.88 µM
  TGI: 3.59 µM
LOX IMVI melanoma
  GI50: 2.23 µM
  TGI: 3.85 µM
M14 melanoma
  GI50: 1.81 µM
  TGI: 3.38 µM
MDA-MB-435
  GI50: 1.74 µM
  TGI: 3.26 µM
NCI-H522 lung
  GI50: 1.72 µM
  TGI: 3.32 µM
NCI/ADR-RES ovarian
  GI50: 3.09 µM
  TGI: 14.3 µM
OVCAR-3 ovarian
  GI50: 1.95 µM
  TGI: 3.83 µM
OVCAR-4 ovarian
  GI50: 2.28 µM
  TGI: 5.32 µM
OVCAR-5 ovarian
  GI50: 2.44 µM
  TGI: 6.31 µM
OVCAR-8 ovarian
  GI50: 1.84 µM
  TGI: 3.72 µM
RXF 393 renal
  GI50: 1.67 µM
  TGI: 3.23 µM
SF-268 CNS
  GI50: 2.13 µM
  TGI: 4.77 µM
SF-295 CNS
  GI50: 1.87 µM
  TGI: 3.49 µM
SK-MEL-2 melanoma
  GI50: 1.79 µM
  TGI: 3.5 µM
SK-MEL-28 melanoma
  GI50: 1.82 µM
  TGI: 3.31 µM
SK-MEL-5 melanoma
  GI50: 1.7 µM
  TGI: 3.08 µM
SN12C renal
  GI50: 1.98 µM
  TGI: 3.91 µM
SNB-19 CNS
  GI50: 3.25 µM
  TGI: 14.2 µM
SW-620 colon
  GI50: 1.68 µM
  TGI: 3.26 µM
T-47D breast
  GI50: 1.91 µM
  TGI: 4.13 µM
TK-10 renal
  GI50: 2.27 µM
  TGI: 5.23 µM
UACC-257 melanoma
  GI50: 1.73 µM
  TGI: 3.17 µM
UO-31 renal
  GI50: 1.65 µM
  TGI: 3.55 µM

## Cc1ccc2c(n1)C(=O)C(Cl)=C(Nc1ccc(C(=O)OC(C)(C)C)cc1)C2=O
786-0 renal
  GI50: > 92.5 µM
  TGI: > 92.5 µM
A498 renal
  GI50: > 92.5 µM
  TGI: > 92.5 µM
A549 NSCLC
  GI50: > 92.5 µM
  TGI: > 92.5 µM
ACHN renal
  GI50: 15.8 µM
  TGI: 28.6 µM
BT-549 breast
  GI50: > 92.5 µM
  TGI: > 92.5 µM
CAKI-1 renal
  GI50: 14.4 µM
  TGI: 30.6 µM
CCRF-CEM leukemia
  GI50: 5.9 µM
  TGI: > 92.5 µM
COLO 205 colon
  GI50: 21.9 µM
  TGI: 63 µM
DU-145 prostate
  GI50: > 92.5 µM
  TGI: > 92.5 µM
EKVX NSCLC
  GI50: > 92.5 µM
  TGI: > 92.5 µM
HCC-2998 colon
  GI50: > 92.5 µM
  TGI: > 92.5 µM
HCT-116 colon
  GI50: 15.5 µM
  TGI: 32 µM
HCT-15 colon
  GI50: 15.4 µM
  TGI: 33.9 µM
HL-60(TB) leukemia
  GI50: 7.65 µM
  TGI: 71.1 µM
HOP-62 NSCLC
  GI50: > 92.5 µM
  TGI: > 92.5 µM
HOP-92 NSCLC
  GI50: 16.4 µM
  TGI: 36.7 µM
HS 578T breast
  GI50: > 92.5 µM
  TGI: > 92.5 µM
HT29 colon
  GI50: > 92.5 µM
  TGI: > 92.5 µM
IGROV1 ovarian
  GI50: 71.4 µM
  TGI: > 92.5 µM
K-562 leukemia
  GI50: 3.77 µM
  TGI: > 92.5 µM
KM12 colon
  GI50: > 92.5 µM
  TGI: > 92.5 µM
LOX IMVI melanoma
  GI50: 16.9 µM
  TGI: 33 µM
M14 melanoma
  GI50: 29.2 µM
  TGI: > 92.5 µM
MALME-3M melanoma
  GI50: 15.7 µM
  TGI: 30.5 µM
MCF7 breast
  GI50: 16 µM
  TGI: 35.3 µM
MDA-MB-231 breast
  GI50: 30.2 µM
  TGI: > 92.5 µM
MDA-MB-435
  GI50: 90.3 µM
  TGI: > 92.5 µM
MOLT-4 leukemia
  GI50: 4.65 µM
  TGI: 72.8 µM
NCI-H226 lung
  GI50: > 92.5 µM
  TGI: > 92.5 µM
NCI-H460 lung
  GI50: > 92.5 µM
  TGI: > 92.5 µM
NCI-H522 lung
  GI50: 16.3 µM
  TGI: 35.7 µM
NCI/ADR-RES ovarian
  GI50: > 92.5 µM
  TGI: > 92.5 µM
OVCAR-3 ovarian
  GI50: 13.8 µM
  TGI: 30.4 µM
OVCAR-4 ovarian
  GI50: 12.7 µM
  TGI: 29.2 µM
OVCAR-5 ovarian
  GI50: > 92.5 µM
  TGI: > 92.5 µM
OVCAR-8 ovarian
  GI50: > 92.5 µM
  TGI: > 92.5 µM
PC-3 prostate
  GI50: > 92.5 µM
  TGI: > 92.5 µM
RPMI-8226 leukemia
  GI50: 23.3 µM
  TGI: > 92.5 µM
RXF 393 renal
  GI50: 12.8 µM
  TGI: 25.5 µM
SF-268 CNS
  GI50: > 92.5 µM
  TGI: > 92.5 µM
SF-295 CNS
  GI50: > 92.5 µM
  TGI: > 92.5 µM
SF-539 CNS
  GI50: > 92.5 µM
  TGI: > 92.5 µM
SK-MEL-2 melanoma
  GI50: > 92.5 µM
  TGI: > 92.5 µM
SK-MEL-28 melanoma
  GI50: 18.2 µM
  TGI: 38.5 µM
SK-MEL-5 melanoma
  GI50: > 92.5 µM
  TGI: > 92.5 µM
SK-OV-3 ovarian
  GI50: > 92.5 µM
  TGI: > 92.5 µM
SN12C renal
  GI50: > 92.5 µM
  TGI: > 92.5 µM
SNB-19 CNS
  GI50: > 92.5 µM
  TGI: > 92.5 µM
SNB-75 CNS
  GI50: > 92.5 µM
  TGI: > 92.5 µM
SR leukemia
  GI50: 3.44 µM
  TGI: 55.7 µM
SW-620 colon
  GI50: 18.5 µM
  TGI: 44 µM
T-47D breast
  GI50: 16.6 µM
  TGI: 55.4 µM
TK-10 renal
  GI50: > 92.5 µM
  TGI: > 92.5 µM
U251 CNS
  GI50: > 92.5 µM
  TGI: > 92.5 µM
UACC-257 melanoma
  GI50: 31.7 µM
  TGI: > 92.5 µM
UACC-62 melanoma
  GI50: > 92.5 µM
  TGI: > 92.5 µM
UO-31 renal
  GI50: 18.9 µM
  TGI: 53.1 µM
